Test results published in publication PMC8765781, “A platform of assays for the discovery of anti-Zika small-molecules with activity in a 3D-bioprinted outer-blood-retina model” (PLoS ONE, 2022).
Read-outs that look alike come from different tables or passages of the source. *1 amine or outer side, *2 acyl side, *3 side chain or, on linkers, in order; H or OH if unused. Where a SMILES comes first, the peptide text is derived from it. [ ]: non-standard residue; d: D form. The star is where a group is joined. ξ: configuration not given here. X2 = CCC(C)(N*)C(=O)C1CC[C@@H](C(=O)N[CH]Cc2ccccc2)N1; X1 = O=C([C@@H]1CC(O)CN1[*:1])[*:2]; aIle = CC[C@@H](C)[C@H](N)C(=O)O; Thr(3ξ) = CC(O)[C@H](N)C(=O)O; ξIva = CCC(C)(N)C(=O)O; Aib = CC(C)(N)C(=O)O

Experiments:
[1] = system: wild-type ZIKV (Ugandan MR766 strain) in Vero cells; assay: ZIKV cytopathic effect (CPE) inhibition qHTS assay, CellTiter-Glo readout; assay type: cell-based, Zika virus; conditions: for AC50 / IC50: Zika virus; for IC50: read-out: ZIKV-infection (CPE, ZIKV Antiviral Assays), IC50
[2] = system: caspase-3 activity induced by ZIKV in Vero cells; assay: cells; assay type: cell-based; conditions: Zika virus, read-out: Caspase 3 (ZIKV Antiviral Assays), IC50
[3] = system: ZIKV-RLuc (Cambodian strain FSS13025); assay: microbe, parasite or virus in culture; assay type: cell-based, Zika virus; conditions: Zika virus, Vero, 48 h, read-out: Rluc-ZIKV (ZIKV Antiviral Assays), IC50
[4] = system: ZIKV-mCherry (Cambodian strain FSS13025); assay: microbe, parasite or virus in culture; assay type: cell-based, Zika virus; conditions: for AC50: Zika virus, Vero
[5] = in vitro; conditions: African green monkey
[6] = Vero, read-out: Log AC50 (M) (converted)
[7] = read-out: Log AC50 (M) (converted)
[8] = Vero, from Hill fit of the response curve, 50% of maximum activity response, 194 cherry-picked compounds, protocol name not given, read-out: AC50
[9] = Vero, potency in log units (Molar) from Hill fit of the response curve, 194 cherry-picked compounds, protocol name not given, read-out: Log AC50 (converted)
[10] = Vero cells, wild-type ZIKV MOI 1, 48 hr, unit inferred
[11] = curve class v2 (Inglese et al. 2006)
[12] = difference between neutral response and maximum compound response
[13] = ZIKV-infected Vero cells, 48 hr, unit inferred

SMILES	Efficacy [1]	AC50 ([1]; Vero) [M]	IC50 ([1]; Vero, 48 h) [µM]	AC50 [1, 6] [M]	IC50 ([2]; Vero, 48 h) [µM]	IC50 [3] [µM]	CC-v2 (curve class of the dose response curve) [4]	Efficacy (difference between neutral response and maximum compound response) [4]	Max Resp (difference between neutral response and response at highest compound concentration) [4]	AC50 [4] [M]	AC50 [4, 7] [M]	CC50 [5] [µM]	AC50 [1, 8] [M]	AC50 [1, 9] [M]	IC50 [1, 10] [µM]	CC-v2 (curve class classification of the dose response curve) [1, 11]	Efficacy [1, 12]	IC50 [2, 13] [µM]	CC50 at 48 h [5] [µM]	further results
C/C=C(\C)C(=O)O[C@H]1[C@H](OC(C)=O)[C@]2(CO)[C@H](O)[C@H](O)[C@]3(C)C(=CCC4[C@@]5(C)CC[C@H](O[C@@H]6O[C@H](C(=O)O)[C@@H](O)[C@H](O[C@@H]7OC[C@H](O)[C@H](O[C@@H]8OC[C@H](O)[C@H](O)[C@H]8O)[C@H]7O)[C@H]6O[C@@H]6O[C@H](CO)[C@@H](O)[C@H](O)[C@H]6O)C(C)(C)C5CC[C@]43C)[C@@H]2CC1(C)C (stereo partly shown) [NCGC00381072-01]	-30.676	8.71e-06	8.71	8.71e-06	2.52	4.45	-2.2	-56.385	-100.02	5.66e-06	5.66e-06	> 50	–	–	–	–	–	–	–	–
CCC/C=C/C(=O)O[C@H]1CC(C)(C)CC2[C@@]13[C@H](O)C[C@]1(C)[C@@]2(CCC2[C@@]4(C)CC[C@H](O[C@@H]5O[C@H](C(=O)O)[C@@H](O)[C@H](O[C@@H]6O[C@H](CO)[C@H](O)[C@H](O)[C@H]6O[C@@H]6O[C@@H](C)[C@H](O)[C@@H](O)[C@H]6O[C@@H]6OC[C@](O)(CO)[C@H]6O)[C@H]5O[C@@H]5O[C@H](CO)[C@H](O)[C@H](O)[C@H]5O)C(C)(C)C4CC[C@]21C)O[C@H]3O (stereo partly shown) [NCGC00385970-01]	–	–	–	–	–	2.23	-1.3	-68.04	-100.305	2.53e-06	2.53e-06	> 50	3.09e-06	3.09e-06	3.09	-1.2	-40.513	0.5	–	–
CC(=O)O[C@@H]1C[C@]2(C)[C@@]3(CCC4[C@@]5(C)CC[C@H](O[C@@H]6O[C@H](C(=O)O)[C@@H](O)[C@H](OC7OC(CO)C(O)C(O)[C@H]7O[C@@H]7O[C@@H](C)[C@H](O)[C@@H](O)[C@H]7O[C@@H]7OC[C@](O)(CO)[C@H]7O)[C@H]6OC6OC(CO)C(O)C(O)C6O)C(C)(C)C5CC[C@]42C)OC[C@@]12CCC(C)(C)CC23 (stereo partly shown) [NCGC00381303-01]	-19.952	2.75e-06	2.75	2.75e-06	4.48	1.77	-1.2	-57.722	-99.519	3.18e-06	3.18e-06	–	–	–	–	–	–	–	–	CC50 at 48 h ([5]; Vero cells): > 50 µM
C[C@H]1CC[C@@]2(OC1)O[C@H]1CC3C4CC[C@H]5C[C@@H](O[C@@H]6O[C@H](CO)[C@H](O[C@@H]7O[C@H](CO)[C@@H](O)[C@H](O[C@@H]8OC[C@@H](O)[C@H](O)[C@H]8O)[C@H]7O[C@@H]7O[C@H](CO)[C@@H](O)[C@H](O)[C@H]7O)[C@H](O)[C@H]6O)[C@H](O)C[C@]5(C)C4=CC(=O)[C@]3(C)[C@H]1[C@@H]2C (stereo partly shown) [NCGC00385095-01]	–	–	–	–	–	6.95	-1.4	-65.601	-99.657	–	–	–	1.55e-05	1.55e-05	15.5	–	-21.201	7.84	> 50	–
C=C(C)C(C)C1OC23CC4(CO2)C(CCC2C5(C)CCC(OC6OCC(O)C(OC7OC(CO)C(O)C(OC8OCC(O)C(O)C8O)C7O)C6OC6OC(CO)C(O)C6O)C(C)(C)C5CCC24C)C3C(C)(O)C1OC(C)=O (stereo not shown) [NCGC00384732-01]	–	–	–	–	–	6.95	-1.4	-78.707	-96.911	–	–	–	1.38e-05	1.38e-05	13.8	–	-32.277	0.16	> 50	–
C=C1CC[C@@]2(OC1)O[C@H]1CC3C4CC=C5C[C@@H](O[C@@H]6O[C@@H](C)[C@H](O)[C@@H](O)[C@H]6O)C[C@@H](O[C@@H]6O[C@H](C)[C@H](O)[C@H](O)[C@H]6O[C@@H]6O[C@@H](C)[C@H](O)[C@@H](O)[C@H]6O)[C@]5(C)C4CC[C@]3(C)[C@H]1[C@@H]2C (stereo partly shown) [NCGC00384710-01]	–	–	–	–	–	6.95	-1.2	-59.162	-100.305	7.14e-07	7.14e-07	–	1.23e-05	1.23e-05	12.3	–	-26.266	1.24	> 50	–
CC(=O)OCC1OC(OC2COC(OC3COC(OC4C(OC5C(CO)OC(OC6CCC7(C)C(CCC8(C)C7CC=C7C9CC(C)(C)CCC9(C(=O)OC9OC(CO)C(O)C(O)C9OC9OCC(OC%10OCC(O)(CO)C%10O)C(O)C9O)C(O)CC78C)C6(C)C)C(O)C5O)OCC(O)C4O)C(O)C3O)C(O)C2O)C(OC(=O)/C=C/c2ccccc2)C(O)C1OC(C)=O (stereo not shown) [NCGC00381294-01]	–	–	–	–	–	1.6	-1.3	-53.243	-100.305	1.16e-06	1.16e-06	> 50	5.62e-06	5.62e-06	5.62	-2.2	-55.683	0.2	–	–
C[C@H]1CC[C@@]2(OC1)O[C@H]1CC3[C@@H]4CC[C@@H]5C[C@@H](O[C@@H]6O[C@H](CO)[C@@H](O[C@@H]7O[C@@H](C)[C@H](O)[C@@H](O)[C@H]7O)[C@H](O)[C@H]6O[C@@H]6O[C@H](CO)[C@@H](O)[C@H](O)[C@H]6O)CC[C@]5(C)C4CC[C@]3(C)[C@H]1[C@@H]2C (stereo partly shown) [NCGC00347372-02, Asparanin B]	–	–	–	–	–	6.19	-1.2	-51.182	-100.305	1.27e-06	1.27e-06	–	1.1e-05	1.1e-05	11	-2.2	-63.699	6.98	> 50	–
CC[C@@H](C)[C@H](NC(=O)C(C)(C)NC(=O)[C@H](CCC(N)=O)NC(=O)C(C)(CC)NC(=O)[C@H](Cc1c[nH]c2ccccc12)NC(C)=O)C(=O)N[C@H](C(=O)NC(C)(C)C(=O)N[C@@H](CC(C)C)C(=O)NC(C)(C)C(=O)N1CCC[C@H]1C(=O)N[C@@H](CCC(N)=O)C(=O)NC(C)(C)C(=O)N1CC(O)C[C@H]1C(=O)NC(C)(CC)C(=O)C1CC[C@@H](C(=O)N[CH]Cc2ccccc2)N1)C(C)O (stereo partly shown) [NCGC00385349-01] (Ac-W[ξIva]Q[Aib][aIle][Thr(3ξ)][Aib]L[Aib]PQ[Aib][X1]-X2)	-36.779	1e-05	10	1e-05	> 48	4.52	-1.4	-52.827	-100.29	–	–	> 50	–	–	–	–	–	–	–	CC-v2 (curve class classification of the dose response curve) [1]: -3
